Patent publication EP3654984B1, “TOPICAL TREATMENT FOR PREVENTING AND MITIGATING SKIN CYTOTOXICITY DUE TO THERAPY WITH TYROSINE KINASE INHIBITORS” (EUCARE S.R.L., priority 2017, dated 2019)
“Also recorded” adds a separate entry of the source.

Assays:
[1] = test system: Asian patients with advanced non-small-cell lung cancer harboring EGFR mutations; conditions: cited from earlier work
[2] = test system: patients with metastatic lung adenocarcinoma with EGFR mutations; conditions: cited from earlier work
[3] = test system: patients with non-small cell lung cancer (NSCLC); conditions: afatinib 40 mg/day for 90 days, cited from earlier work
[4] = test system: patients with EGFR mutation-positive non-small-cell lung cancer; conditions: LUX-Lung 7, cited from earlier work
[5] = test system: skin and subcutaneous tissue; conditions: EMA marketing authorization documentation; cited from earlier work
[6] = test system: appropriate patient population; conditions: approximately; when given to an appropriate patient population; cited from earlier work
[7] = test system: patients with metastatic lung cancer; assay: Retrospective study of prophylactic dermatological treatment with polydatin cream on cutaneous toxicity of afatinib (NCI-CTCAE v3.0 grading); assay type: in vivo; conditions: for Incidence of skin rash, All grades (%) / Incidence of skin rash, Grade 1 (%) / Incidence of skin rash, Grade 2 (%) / Incidence of skin rash, Grade 3 (%): 1.5% polydatin cream twice a day
Description: The main exclusion criteria were: poor patient compliance; allergy or sensitivity to polydatin; current or previous treatment with topical or oral antioxidant drugs; concomitant skin diseases.
The retrospective study was specifically designed to evaluate a proactive management of EGFR-mediated skin toxicity, in order to minimize the possibility of having to reduce the dose or suspend the antitumor treatment.
Patients were monitored every 7 days for the first month, and thereafter every 20 days or when needed.
Data about severity, duration and management of cutaneous toxicity induced by TKI were analyzed in all patients treated using a descriptive statistic.
The scale used for the classification of cutaneous toxicities induced by EGFR-targeted therapies was the classification scale of the Common Terminology Criteria for Adverse Events of the National Cancer Institute.

[8] = test system: skin; conditions: skin reactions during treatment with sunitinib and sorafenib; cited from earlier work
[9] = of the 160 (afatinib) / 159 (gefitinib) patients treated
[10] = term used for a group of adverse events
[11] = Cutaneous rash, all patients (n = 34), afatinib 40 mg/day

Structure (SMILES): CN(C)C/C=C/C(=O)Nc1cc2c(Nc3ccc(F)c(Cl)c3)ncnc2cc1O[C@H]1CCOC1 [Afatinib, afatinib]
- incidence of rash grade 1-2 ([1]; LUX LUNG 6): 66.1%
- rate of treatment discontinuation due to adverse events ([1]; LUX LUNG 6): 2.1%
- Asthenia, All grades ([1]; LUX-Lung 6 (LL6)): 10.0%
- Asthenia, Grade 3 ([1]; LUX-Lung 6 (LL6)): 0.4%
- Asthenia, Grade 4 ([1]; LUX-Lung 6 (LL6)): 0%
- Diarrhea, All grades ([1]; LUX-Lung 6 (LL6)): 88.3%
- Diarrhea, Grade 3 ([1]; LUX-Lung 6 (LL6)): 5.4%
- Diarrhea, Grade 4 ([1]; LUX-Lung 6 (LL6)): 0%
- Hitching, All grades ([1]; LUX-Lung 6 (LL6)): 10.9%
- Hitching, Grade 3 ([1]; LUX-Lung 6 (LL6)): 0.4/0.4%
- Hitching, Grade 4 ([1]; LUX-Lung 6 (LL6)): 0%
- Nausea, All grades ([1]; LUX-Lung 6 (LL6)): 7.5%
- Nausea, Grade 3 ([1]; LUX-Lung 6 (LL6)): 0.0%
- Nausea, Grade 4 ([1]; LUX-Lung 6 (LL6)): 0%
- Paronychia/periungual problems, All grades ([1]; LUX-Lung 6 (LL6)): 32.6%
- Paronychia/periungual problems, Grade 3 ([1]; LUX-Lung 6 (LL6)): 0.0%
- Paronychia/periungual problems, Grade 4 ([1]; LUX-Lung 6 (LL6)): 0%
- Rash/acne, All grades ([1]; LUX-Lung 6 (LL6)): 80.8%
- Rash/acne, Grade 3 ([1]; LUX-Lung 6 (LL6)): 14.2%
- Rash/acne, Grade 4 ([1]; LUX-Lung 6 (LL6)): 0.4%
- Reduction of appetite, All grades ([1]; LUX-Lung 6 (LL6)): 10.0%
- Reduction of appetite, Grade 3 ([1]; LUX-Lung 6 (LL6)): 1.3%
- Reduction of appetite, Grade 4 ([1]; LUX-Lung 6 (LL6)): 0%
- Stomatitis/mucositis, All grades ([1]; LUX-Lung 6 (LL6)): 51.9%
- Stomatitis/mucositis, Grade 3 ([1]; LUX-Lung 6 (LL6)): 5.4%
- Stomatitis/mucositis, Grade 4 ([1]; LUX-Lung 6 (LL6)): 0.0%
- Vomiting, All grades ([1]; LUX-Lung 6 (LL6)): 9.6%
- Vomiting, Grade 3 ([1]; LUX-Lung 6 (LL6)): 0.8%
- Vomiting, Grade 4 ([1]; LUX-Lung 6 (LL6)): 0%
- treatment discontinued due to treatment-related adverse events ([2]; LUX LUNG 3, % of patients): 8%
- incidence of rash grade 1-2 ([2]; LUX LUNG 3): 72.9%
- Asthenia, All grades ([2]; LUX-Lung 3 (LL3)): 17.5%
- Asthenia, Grade 3 ([2]; LUX-Lung 3 (LL3)): 1.3%
- Asthenia, Grade 4 ([2]; LUX-Lung 3 (LL3)): 0%
- Diarrhea, All grades ([2]; LUX-Lung 3 (LL3)): 95.2%
- Diarrhea, Grade 3 ([2]; LUX-Lung 3 (LL3)): 14.4%
- Diarrhea, Grade 4 ([2]; LUX-Lung 3 (LL3)): 0%
- Dry skin, All grades ([2]; LUX-Lung 3 (LL3)): 29.3/NA %
- Dry skin, Grade 3 ([2]; LUX-Lung 3 (LL3)): 0.4/NA %
- Dry skin, Grade 4 ([2]; LUX-Lung 3 (LL3)): 0%
- Hitching, All grades ([2]; LUX-Lung 3 (LL3)): 18.8%
- Hitching, Grade 3 ([2]; LUX-Lung 3 (LL3)): 0.4/0.4%
- Hitching, Grade 4 ([2]; LUX-Lung 3 (LL3)): 0%
- Nausea, All grades ([2]; LUX-Lung 3 (LL3)): 17.9%
- Nausea, Grade 3 ([2]; LUX-Lung 3 (LL3)): 0.9%
- Nausea, Grade 4 ([2]; LUX-Lung 3 (LL3)): 0%
- Paronychia/periungual problems, All grades ([2]; LUX-Lung 3 (LL3)): 56.8%
- Paronychia/periungual problems, Grade 3 ([2]; LUX-Lung 3 (LL3)): 11.4%
- Paronychia/periungual problems, Grade 4 ([2]; LUX-Lung 3 (LL3)): 0%
- Rash/acne, All grades ([2]; LUX-Lung 3 (LL3)): 89.1%
- Rash/acne, Grade 3 ([2]; LUX-Lung 3 (LL3)): 16.2%
- Rash/acne, Grade 4 ([2]; LUX-Lung 3 (LL3)): 0.0%
- Reduction of appetite, All grades ([2]; LUX-Lung 3 (LL3)): 20.5%
- Reduction of appetite, Grade 3 ([2]; LUX-Lung 3 (LL3)): 3.1%
- Reduction of appetite, Grade 4 ([2]; LUX-Lung 3 (LL3)): 0%
- Stomatitis/mucositis, All grades ([2]; LUX-Lung 3 (LL3)): 72.1%
- Stomatitis/mucositis, Grade 3 ([2]; LUX-Lung 3 (LL3)): 8.37%
- Stomatitis/mucositis, Grade 4 ([2]; LUX-Lung 3 (LL3)): 0.4%
- Vomiting, All grades ([2]; LUX-Lung 3 (LL3)): 17.0%
- Vomiting, Grade 3 ([2]; LUX-Lung 3 (LL3)): 3.1%
- Vomiting, Grade 4 ([2]; LUX-Lung 3 (LL3)): 0%
- incidence of rash of any grade ([3]; control arm (no treatment)): 75.6%
- incidence of rash grade ≥ 2 ([3]; control arm): 35.6%
- ALT increased, All ([4]; ALT, alanine aminotransferase): 9.4%
- AST increased, All ([4]; AST, aspartate aminotransferase): 6.3%
- Diarrhea, All ([4]; afatinib 40 mg/day or gefitinib 250 mg/day): 90.0%
- Alopecia, All [4]: 10.6%
- Itching, All [4]: 23.1%
- Nausea, All [4]: 16.3%
- Nausea, Grade 3 [4]: 1.3%
- Reduction of appetite, All [4]: 16.3%
- Reduction of appetite, Grade 3 [4]: 0.6%
- Vomiting, All [4]: 10.6%
- Xerosis, All [4]: 32.5%
- grade 3 or 4 diarrhea [4]: 13%
- grade 3 or 4 rash or acne [4]: 9%
- grade 3 or 4 diarrhea, number of patients [4, 9]: 20 patients
- grade 3 or 4 rash or acne, number of patients [4, 9]: 15 patients
- Asthenia*, All [4, 10]: 20.6%
- Asthenia*, Grade 3 [4, 10]: 5.6%
- Paronychia*, All [4, 10]: 55.6%
- Paronychia*, Grade 3 [4, 10]: 1.9%
- Rash/acne*, All [4, 10]: 88.8%
- Rash/acne*, Grade 3 [4, 10]: 9.4%
- Stomatitis*, All [4, 10]: 64.4%
- Stomatitis*, Grade 3 [4, 10]: 4.4%
- frequency of acneiform dermatitis [5]: very common ("very common" (frequency ≥ 1/10))
- frequency of dryness of the skin (xerosis) [5]: very common ("very common" (frequency ≥ 1/10))
- frequency of itching [5]: very common ("very common" (frequency ≥ 1/10))
- frequency of palmoplantar erythrodysesthesia syndrome [5]: common ("common" (frequency ≥ 1/100 e < 1/10))
- frequency of skin rash [5]: very common ("very common" (frequency ≥ 1/10))

Structure (SMILES): COc1cc2ncnc(Nc3ccc(F)c(Cl)c3)c2cc1OCCCN1CCOCC1 [Gefitinib, gefitinib]
- response rates [6]: 60-70%

Structure (SMILES): C#Cc1cccc(Nc2ncnc3cc(OCCOC)c(OCCOC)cc23)c1 [erlotinib]
- response rates [6]: 60-70%

Structure (SMILES): OC[C@H]1O[C@@H](Oc2cc(O)cc(/C=C/c3ccc(O)cc3)c2)[C@H](O)[C@@H](O)[C@@H]1O [polydatin, 3,4,5'-trihydroxystilbene-3-β-mono-d-glucoside]
- patients who had to discontinue therapy due to toxicity of the antitumor drug ([7]; 1.5% polydatin cream prophylaxis, afatinib 40 mg/day, n = 34): no patient; also recorded: no suspension of treatment
- Incidence of skin rash, All grades (%) [7, 11]: 41.2%
- Incidence of skin rash, Grade 1 (%) [7, 11]: 20.6%
- Incidence of skin rash, Grade 2 (%) [7, 11]: 20.6%
- Incidence of skin rash, Grade 3 (%) [7, 11]: 0%
- Incidence of skin rash, All grades (%) ([7]; Females, afatinib 40 mg/day): 23.5%
- Incidence of skin rash, Grade 1 (%) ([7]; Females, afatinib 40 mg/day): 5.9%
- Incidence of skin rash, Grade 2 (%) ([7]; Females, afatinib 40 mg/day): 8.6%
- Incidence of skin rash, Grade 3 (%) ([7]; Females, afatinib 40 mg/day): 0%
- Incidence of skin rash, All grades (%) ([7]; Males, afatinib 40 mg/day): 17.6%
- Incidence of skin rash, Grade 1 (%) ([7]; Males, afatinib 40 mg/day): 14.7%
- Incidence of skin rash, Grade 2 (%) ([7]; Males, afatinib 40 mg/day): 12%
- Incidence of skin rash, Grade 3 (%) ([7]; Males, afatinib 40 mg/day): 0%
- patients who had to reduce the dose for the cutaneous toxicity of the drug ([7]; prophylaxis with polydatin, afatinib, n = 34): no patient
- patients who had to reduce the dose of afatinib from 40 to 30 mg/day due to intestinal toxicity (%) ([7]; prophylaxis with polydatin, n = 34): 35.3%

Structure (SMILES): CNC(=O)c1cc(Oc2ccc(NC(=O)Nc3ccc(Cl)c(C(F)(F)F)c3)cc2)ccn1 [sorafenib]
- alopecia [8]: 15%
- folliculitis [8]: 38%
- hand-foot syndrome (palmopantar erythrodysesthesia) [8]: 42%
- nail alterations [8]: 14%
- pruritus [8]: 36%
- skin rash [8]: 46%
- stomatitis [8]: 16%

Structure (SMILES): CCN(CC)CCNC(=O)c1c(C)[nH]c(/C=C2\C(=O)Nc3ccc(F)cc32)c1C [sunitinib]
- alopecia [8]: 15%
- folliculitis [8]: 38%
- hand-foot syndrome (palmopantar erythrodysesthesia) [8]: 42%
- nail alterations [8]: 14%
- pruritus [8]: 36%
- skin rash [8]: 46%
- stomatitis [8]: 16%
